± gives the expanded uncertainty stated by the source.
Settings: Liquid

FC(F)=C(F)C(F)(F)F [hexafluoropropene]
Settings	vapor or sublimation pressure [kPa]
263.17 K	224.5 ± 1.7
273.16 K	324.4 ± 2.2
293.12 K	641 ± 4.1
313.11 K	1099.4 ± 7
333.11 K	1788.2 ± 11
353.14 K	2778.2 ± 17

From the NIST ThermoML archive (doi:10.1021/je900703f)
